Reference: patent US10770169B2, “Method of providing a treatment to a subject based on a dynamic pathway map” (THE REGENTS OF THE UNIVERSITY OF CALIFORNIA, priority 2010, dated 2020)
Entries after “also recorded” stand apart in the source; their conditions may differ.

How the values were obtained:
Type in all cases: cell-based, human
[1] = tested on: panel of 55 breast cancer cell lines; assay: Cell growth inhibition assay (Cell Titer Glo, 72 h, 9 doses; GI50, TGI, LC50); settings: value is the negative log10 of mol/L
[2] = tested on: luminal, basal, claudin-low and ERBB2AMP breast cancer cell lines; assay: Associations of clinically relevant subtypes and response (non-parametric ANOVA or t-test on GI50 ranks); settings: Table 6; most sensitive subtype, FDR p<0.20
Summary of the method: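 GI50 values were compared between cell-line subtype groups by non-parametric ANOVA or t-test on ranks. P-values from three test sets were combined and FDR-corrected. Significant three-group effects were followed by post-hoc comparison of each group against all others, and FDR p<0.20 counted as significant.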

[3] = tested on: breast cancer cell lines with aberrant vs normal copy number; assay: Association of recurrent copy number changes and response (t-test on GI50); settings: FDR p<0.2
From the text: We used a t-test to assess the association between recurrent copy number changes (at 8q24 (MYC), 11q13 (CCND1), 20q13 (STK15/AURKA)) and drug sensitivity. We combined into a single group cell lines with low or no amplification and compared them to cell lines with high amplification. […] Cell lines for which the GI50 was equal to the maximum concentration tested were omitted from analysis. We omitted compounds where any group had fewer than five samples.

With `N.N.O=C([O-])C1(C(=O)[O-])CCC1.[Pt+2]` [Carboplatin] as the molecule, how does the GI50 ([1]; 600MPE cell line, censored GI50 values) read?
The GI50 was 3.82.

What about the GI50 ([1]; AU565 cell line, censored GI50 values) of the same molecule?
Its GI50 is 4.94.

And the GI50 ([1]; BT474 cell line, censored GI50 values)?
The GI50 was 3.98.

What about the GI50 ([1]; BT483 cell line, censored GI50 values) of the same molecule?
The GI50 was 5.82.

What about the GI50 ([1]; BT549 cell line, censored GI50 values) of the same molecule?
Its GI50 is 4.58.

What about the GI50 ([1]; CAMA1 cell line, censored GI50 values) of the same molecule?
The GI50 was 3.72.

And the GI50 ([1]; HCC38 cell line, censored GI50 values)?
Its GI50 is 4.76.

What about the GI50 ([1]; HCC70 cell line, censored GI50 values) of the same molecule?
Its GI50 is 4.82.

And the GI50 ([1]; HCC202 cell line, censored GI50 values)?
Its GI50 is 4.44.

What about the GI50 ([1]; HCC1143 cell line, censored GI50 values) of the same molecule?
The GI50 was 3.85.

What about the GI50 ([1]; HCC1187 cell line, censored GI50 values) of the same molecule?
The GI50 was 4.66.

And the GI50 ([1]; HCC1395 cell line, censored GI50 values)?
The GI50 was 5.00.

And the GI50 ([1]; HCC1419 cell line, censored GI50 values)?
The GI50 was 4.15.

What about the GI50 ([1]; HCC1428 cell line, censored GI50 values) of the same molecule?
Its GI50 is 3.86.

What about the GI50 ([1]; HCC1500 cell line, censored GI50 values) of the same molecule?
Its GI50 is 4.69.

And the GI50 ([1]; HCC1806 cell line, censored GI50 values)?
The GI50 was 4.80.

And the GI50 ([1]; HCC1937 cell line, censored GI50 values)?
The GI50 was 4.44.

And the GI50 ([1]; HCC1954 cell line, censored GI50 values)?
The GI50 was 4.37.

And the GI50 ([1]; HCC2185 cell line, censored GI50 values)?
Its GI50 is 4.69.

What about the GI50 ([1]; HCC3153 cell line, censored GI50 values) of the same molecule?
Its GI50 is 4.45.

What about the GI50 ([1]; LY2 cell line, censored GI50 values) of the same molecule?
The GI50 was 4.39.

And the GI50 ([1]; MCF7 cell line, censored GI50 values)?
The GI50 was 3.77.

What about the GI50 ([1]; MDAMB134VI cell line, censored GI50 values) of the same molecule?
Its GI50 is 3.73.

And the GI50 ([1]; MDAMB157 cell line, censored GI50 values)?
The GI50 was 4.07.

And the GI50 ([1]; MDAMB175VII cell line, censored GI50 values)?
Its GI50 is 4.44.

And the GI50 ([1]; MDAMB231 cell line, censored GI50 values)?
Its GI50 is 4.09.

What about the GI50 ([1]; MDAMB361 cell line, censored GI50 values) of the same molecule?
The GI50 was 4.34.

And the GI50 ([1]; MDAMB415 cell line, censored GI50 values)?
Its GI50 is 3.73.

What about the GI50 ([1]; MDAMB436 cell line, censored GI50 values) of the same molecule?
The GI50 was 4.18.

What about the GI50 ([1]; MDAMB453 cell line, censored GI50 values) of the same molecule?
The GI50 was 4.23.

What about the GI50 ([1]; MDAMB468 cell line, censored GI50 values) of the same molecule?
Its GI50 is 4.31.

What about the GI50 ([1]; SKBR3 cell line, censored GI50 values) of the same molecule?
Its GI50 is 4.87.

What about the GI50 ([1]; SUM52PE cell line, censored GI50 values) of the same molecule?
The GI50 was 4.71.

What about the GI50 ([1]; SUM149PT cell line, censored GI50 values) of the same molecule?
The GI50 was 4.87.

What about the GI50 ([1]; SUM159PT cell line, censored GI50 values) of the same molecule?
The GI50 was 4.55.

What about the GI50 ([1]; SUM185PE cell line, censored GI50 values) of the same molecule?
Its GI50 is 3.90.

And the GI50 ([1]; SUM1315MO2 cell line, censored GI50 values)?
Its GI50 is 4.56.

What about the GI50 ([1]; T47D cell line, censored GI50 values) of the same molecule?
The GI50 was 3.95.

What about the GI50 ([1]; UACC812 cell line, censored GI50 values) of the same molecule?
Its GI50 is 4.81.

And the GI50 ([1]; ZR75B cell line, censored GI50 values)?
Its GI50 is 3.52.

What about the GI50 ([1]; ZR751 cell line, censored GI50 values) of the same molecule?
Its GI50 is 4.07.

What about the GI50 ([1]; ZR7530 cell line, censored GI50 values) of the same molecule?
Its GI50 is 4.55.

What about the GI50 ([1]; cell line 600MPE) of the same molecule?
The GI50 was 3.82.

What about the GI50 ([1]; cell line AU565) of the same molecule?
Its GI50 is 4.94.

What about the GI50 ([1]; cell line BT474) of the same molecule?
The GI50 was 3.98.

What about the GI50 ([1]; cell line BT483) of the same molecule?
Its GI50 is 5.82.

What about the GI50 ([1]; cell line BT549) of the same molecule?
The GI50 was 4.58.

And the GI50 ([1]; cell line CAMA1)?
Its GI50 is 3.72.

What about the GI50 ([1]; cell line HCC38) of the same molecule?
Its GI50 is 4.76.

And the GI50 ([1]; cell line HCC70)?
Its GI50 is 4.82.

And the GI50 ([1]; cell line HCC202)?
Its GI50 is 4.44.

And the GI50 ([1]; cell line HCC1143)?
Its GI50 is 3.85.

What about the GI50 ([1]; cell line HCC1187) of the same molecule?
The GI50 was 4.66.

And the GI50 ([1]; cell line HCC1395)?
Its GI50 is 5.00.

What about the GI50 ([1]; cell line HCC1419) of the same molecule?
The GI50 was 4.15.

And the GI50 ([1]; cell line HCC1428)?
Its GI50 is 3.86.

What about the GI50 ([1]; cell line HCC1500) of the same molecule?
The GI50 was 4.69.

What about the GI50 ([1]; cell line HCC1806) of the same molecule?
The GI50 was 4.80.

What about the GI50 ([1]; cell line HCC1937) of the same molecule?
The GI50 was 4.44.

And the GI50 ([1]; cell line HCC1954)?
The GI50 was 4.37.

And the GI50 ([1]; cell line HCC2185)?
Its GI50 is 4.69.

What about the GI50 ([1]; cell line HCC3153) of the same molecule?
Its GI50 is 4.45.

And the GI50 ([1]; cell line LY2)?
The GI50 was 4.39.

And the GI50 ([1]; cell line MCF7)?
The GI50 was 3.77.

What about the GI50 ([1]; cell line MDAMB134V) of the same molecule?
The GI50 was 3.73.

And the GI50 ([1]; cell line MDAMB157)?
The GI50 was 4.07.

What about the GI50 ([1]; cell line MDAMB175V) of the same molecule?
The GI50 was 4.44.

What about the GI50 ([1]; cell line MDAMB231) of the same molecule?
The GI50 was 4.09.

What about the GI50 ([1]; cell line MDAMB361) of the same molecule?
Its GI50 is 4.34.

What about the GI50 ([1]; cell line MDAMB415) of the same molecule?
The GI50 was 3.73.

And the GI50 ([1]; cell line MDAMB436)?
The GI50 was 4.18.

And the GI50 ([1]; cell line MDAMB453)?
Its GI50 is 4.23.

And the GI50 ([1]; cell line MDAMB468)?
The GI50 was 4.31.

And the GI50 ([1]; cell line SKBR3)?
Its GI50 is 4.87.

What about the GI50 ([1]; cell line SUM52PE) of the same molecule?
The GI50 was 4.71.

And the GI50 ([1]; cell line SUM149PT)?
Its GI50 is 4.87.

What about the GI50 ([1]; cell line SUM159PT) of the same molecule?
Its GI50 is 4.55.

And the GI50 ([1]; cell line SUM185PE)?
Its GI50 is 3.90.

And the GI50 ([1]; cell line SUM1315MO)?
Its GI50 is 4.56.

And the GI50 ([1]; cell line T47D)?
The GI50 was 3.95.

And the GI50 ([1]; cell line UACC812)?
The GI50 was 4.81.

And the GI50 ([1]; cell line UACC893)?
The GI50 was 3.04.

What about the GI50 ([1]; cell line ZR75B) of the same molecule?
The GI50 was 3.52.

What about the GI50 ([1]; cell line ZR751) of the same molecule?
Its GI50 is 4.07.

What about the GI50 ([1]; cell line ZR7530) of the same molecule?
The GI50 was 4.55.

And the Subtype specificity [2]?
The Subtype specificity was “Basal + Claudin-low”.

And the “association of response with amplification at 11q13 (CCND1)” value [3]?
The value was “associated with sensitivity; also recorded: associated with response”.
